Patent US11541059B2, “Heterocyclic compounds and uses thereof” (Infinity Pharmaceuticals, Inc., priority 2014, dated 2023)

Columns and labels:
[1] = tested on: human T cells; test: Concanavalin A-induced model for activation of human T cells (IFN-γ); type: cell-based; details: isoform selective concentrations
[2] = tested on: CXCL12-induced pAKT in T-cells; test: CXCL12-induced pAKT assay in T-cells; type: cell-based, human; details: FIG. 9
Source text: There was a tight correlation between the EC50s observed in the CXCL12-induced pAKT assay and the T-cell migration assay.

[3] = tested on: LPS induced neutrophil influx in BALF; test: LPS-induced neutrophilia, oral administration; type: in vivo; details: rat, p.o., 4 hours post-LPS challenge
Source text: This study also includes assessment of the exposure to the compounds in plasma and lung tissues.

[4] = Pharmacokinetics of Compound BB, single and repeat oral dose; type: in vivo, mouse; details: female CB6F1 mice, 2, 7.5, 15 mg/kg PO
Method: Animals were weighed daily prior to dosing. […] On subsequent dosing days, the animals' condition was noted prior to dosing; the animals were observed within 4 hours of dosing, and at the end of the day.
Samples were collected at pre-dose 0.25, 0.5, 1, 2, 4, 6 and 24 h following the first dose on day 1 and pre-dose (trough), 0.25, 0.5, 1, 2, 4, 6 and 24 h following the final dose on day 3. Animals received a single oral dose daily for 3 consecutive days. Blood was collected by retro-orbital bleeding for all time points on day 1. All other blood sampling was collected by a cardiac puncture. Blood was collected into K2EDTA tubes and placed on wet ice. Within 15 min of collection, the sample was centrifuged at 10,000 rpm at 4° C. for 10 min in a bench top centrifuge and the plasma transferred to a new microcentrifuge tube.

[5] = tested on: LLC tumor; test: Lewis Lung Carcinoma (LLC tumor brei) model; type: in vivo, mouse; details: FIG. 25A, 25B
Method: Compound BB was tested in the Lewis Lung Carcinoma model, which is known in the art and briefly described hereinabove.
LLC tumor brei model was prepared and injected subcutaneously into a mouse in the hind flank region. The tumor brei was prepared as follows. LL2-Luc tumor cells were grown in culture in DMEM+10% FBS. Cells were implanted @ 1×10^6 cells/100 uL SC in the flank of C57 Albino mice (male) When tumors reached 1000 mm3, tumors were harvested. Only the white, living tissue was harvested. Any material containing visable blood or necrotic area was isolated away from the tumor tissue. Tumor tissue was placed in a Dounce tissue homoginized with 5 mLs of warm DMEM (no FBS). About 1-2 grams of tumor tissue was collected, homogenized, pooled into 50 mL falcon tube, and cells were counted. Cells were spinned @ […], and FBS was pooled off Cells were resuspended to equal 1×10^7 cells/mL with sterile PBS. 100 uL of cells/mouse SC at the hind flank region were implanted. This process was repeated one more time before conducting brei tumor efficacy study.

[6] = tested on: 4T1 tumors; test: 4T1 breast cancer model; type: in vivo, mouse
Method: Plasma is collected for pharmokinetic (PK) analysis.
Briefly, in this study, treatment was initiated when tumors reached approximately 100 mm^3. […] 1. […] Vehicle+anti-PD-L1 (200 ug); 4.
Luciferin measurements were taken twice a week.

[7] = tested on: monocytic iMCs in CT26 subcutaneous tumors; test: Flow cytometry of tumor-associated myeloid cells, CT26; type: in vivo, mouse; details: FIG. 38B
Method: Flow cytometry was performed to obtain a more extensive cellular subset analysis. In particular, the study examined T cell vs. Myeloid cells, Myeloid cell subsets, Regulatory vs. effector T cells, and Tumor markers vs. WBC (e.g., PD-L1 expression on tumor).
Different populations of tumor-associated myeloid cells can be identified by flow cytometry, e.g., monocytic immature myeloid cells (iMC),Granulocytic iMCs/Neutrophils, Tumor Associated Macrophages (TAMs), and Granulocytic MDSCs. The different populations, and panels for detecting MDSCs, are described in Cancer Discovery 2011; 1:54-67. Tumors may vary in their myeloid cell composition.

[8] = Stability in simulated gastric fluid; type: physicochemical
Source text: The phyiscochemical properties of Compound BB are drug-like, and suitable for use of the compound as a drug.

[9] = Oral half-life; type: in vivo; details: plasma
Source text: Compound BB's oral exposure is high in rat, dog and monkey. Good oral bioavailability and low clearance in rodent and non-rodent animal species results in high oral exposure.

[10] = Target organ toxicity (TOT) study, 10 days oral; type: in vivo; details: rat
Method: A target organ toxicity (TOT) study was performed in rats. […] This study assessed clinical observations/mortality, body weights, clinical pathology, toxicokinetics, and histopathology of select tissues. The tissues studied were: Adrenal gland, Bone marrow (femur), Brain, Small Intestine (including GALT), Heart, Large Intestine, Kidney, Stomach, Liver, Pancreas, Spleen, Testis, and Thymus. Doses were selected based on repeat-dose tolerability study, PK and plasma protein binding, and cellular IC50s for PI3K isoforms. The doses selected were: high-dose: 50 mg/kg/day, expected to inhibit α, β, δ, and γ PI3K isoforms; Mid-high dose: 20 mg/kg/day, expected to inhibit β, δ, and γ PI3K isoforms; Mid-low dose: 7.5 mg/kg, expected to inhibit γ PI3K isoform only; and Low-dose: 1 mg/kg/day, expected to inhibit γ PI3K isoform only.

[11] = tested on: collagen induced arthritis; test: Rat collagen induced arthritis (CIA) model; details: FIG. 1

## C[C@H](NC(=O)c1c(N)nn2cccnc12)c1cc2cccc(C#Cc3cnn(C)c3)c2c(=O)n1-c1ccccc1 [Compound BB]
[1]
  effect on IFN-γ: little to no effect
[2]
  Inhibition of CXCL12-induced pAKT in T-cells: inhibited CXCL12-induced pAKT in T-cells more strongly than a PI3K-δ inhibitor
[3]
  Neutrophil in bronchoalveolar lavage fluid (BALF): reduced neutrophil
[4]
  Stability in serum (24-hour unbound plasma concentration time course): good stability in serum
[5]
  Tumor growth, Lewis Lung Carcinoma model: demonstrated single agent activity
[6]; 7.5 mg/kg PO QD 3 weeks, FIG. 33A
  Tumor growth, orthotopic 4T1 breast cancer model: reduced tumor growth
[6]; 15 mg/kg PO QD 2 weeks, FIG. 36
  Tumor growth, subcutaneous 4T1 breast cancer model: demonstrated single agent activity
[6]; subcutaneous 4T1, FIG. 34
  Anti-tumor effect maintained after discontinuation of treatment: at least 6 days
[7]
  Monocytic iMCs: monocytic iMCs were decreased
[8]
  Stability in 38° simulated gastric fluid: > 4 h
[9]; dog, 5 mg/kg
  half-life: ~7.1 h
[9]; monkey, 5 mg/kg
  half-life: ~10.2 h
[9]; rat, 7.5 mg/kg
  half-life: ~3.3 h
[10]; high dose animals (50 mg/kg/day)
  Decrease in body weights compared to vehicle: 5-8%
[10]; males ≥7.5 mg/kg/day, females 50 mg/kg/day
  Histopathology, thymus: minimal/mild lymphoid depletion
[10]; oral 10 days, any dose level
  Mortality and clinical signs: No mortality or clinical signs were observed
[10]; oral, 1, 7.5, 20, 50 mg/kg/day
  Tolerability, TOT study: well-tolerated for 10 days
[10]; primarily at doses ≥20 mg/kg/day
  Histopathology, spleen: minimal/mild lymphoid depletion of the marginal zone and periarteriolar lymphoid sheaths (PALS)
[11]
  Mean ankle diameter, day 9 to day 17: has therapeutic effects
